The source of these data is paper PMC6599006, “Rational design using sequence information only produces a peptide that binds to the intrinsically disordered region of p53” (Scientific Reports, 2019).

Assay [1] has as its system FL-p53 binding to nspDNA (random sequence). Nature of the assay: Fluorescence anisotropy titration of FL-p53 against nspDNA in the presence of peptide. The assay is classed as biochemical, human. From the text: (§1) We prepared FL-p53, TetCT mutant, and CoreTet mutant as described previously. For FL-p53, the thermostable and cysteine-modified mutant of human p53 (C124A, C135V, C141V, W146Y, C182S, V203A, R209P, C229Y, H233Y, Y234F, N235K, Y236F, T253V, N268D, C275A, C277A, K292C) was used[11]. The TetCT mutant corresponds to residues 293−393 of human p53 with an additional N-terminal cysteine. The CoreTet mutant corresponds to residues 1–363 of FL-p53[12]. Expression and purification of the three mutants was conducted as previously described[11],[12]. Briefly, all mutants with a GST tag were expressed in Escherichia coli and were collected from a GST column after cleavage of the GST tag and further purified by using a heparin column. The DNA binding ability of all mutants was confirmed by titration experiments as described elsewhere[10]–[12]. […]
(§2) The fluorescence anisotropy of fluorescent CT peptide or DNA was measured at 25 °C using a fluorescence spectrometer (FP-6500, JASCO Co., Tokyo, Japan) with an automatic titrator and home-build autorotating polarizer. […] For p53 mutants, the concentration was calculated for the tetramer.
In general terms: Polarisation of emitted light reports the rotation of a fluorescent probe.

Assay [2] relates to FL-p53 binding to spDNA (p21). Briefly: Fluorescence anisotropy titration of FL-p53 against spDNA in the presence of peptide. The assay is classed as biochemical, human. As to conditions: saturated at 300 μM DP6.
Description: as §1, §2

Assay [3] concerns the target T1, FL-p53 labeled with Atto532 sliding along nspDNA (λDNA array) (Homo sapiens, UniProt P04637, C124A/C135V/C141V/C182S/C229Y/C275A/C277A/H233Y/K292C/N235K/N268D/R209P/T253V/V203A/W146Y/Y234F/Y236F).
T1 construct: we prepared three p53 constructs: full-length p53 (FL-p53); GST (cleaved yes); made in house; host or cells: Escherichia coli
Briefly: Single-molecule fluorescence measurement of 1D sliding of FL-p53 along DNA (DNA garden). It is filed as biochemical. As to conditions: displacement analysis, time interval 165 ms; for Fraction of fast sliding mode of FL-p53: 100 mM KCl, 2 mM MgCl2, pH 7.9.
Description: The 1D sliding of FL-p53 labeled with Atto532 along DNA was measured by a custom-built TIRF microscope, as described previously[11],[39]. The λDNA array tethered on the coverslip of the flow cell was constructed using microcontact printing as described previously[39]. FL-p53 was labeled with Atto532 as described elsewhere[11]. FL-p53 with Atto532 at 2–4 nM was introduced into the flow cell with the DNA array by a syringe pump and measured at a flow rate of 500 μL/min, corresponding to 90% extension of λDNA. […] The experiments were conducted immediately after the dilution of FL-p53 from the stock solution at more than 10 μM and finished within 50 min to prevent the dissociation of the tetramer[40]. The analysis was described previously[11]. For distribution analysis, the following fitting equation was used:3 P(δx)=∑i=12Ai/4πDiδtexp(−(δx+viδt)^2/4Diδt), where P(δx), δt, δx, Ai, vi, and Di are the occurrence of δx, time interval, displacement in the time interval, amplitude of the ith mode, drift velocity of the ith mode, and diffusion coefficient of the ith mode, respectively.

The test system of assay [4] is CoreTet mutant of p53 binding to spDNA (p21). Briefly: Fluorescence anisotropy titration of CoreTet mutant against spDNA in the presence of DP6. The assay is classed as biochemical, human. The conditions noted are these: 600 μM DP6. As to the method: (§3) The solution used here included 100 mM KCl to mimic physiological conditions.
as §1, §2

The subject of assay [5] is TetCT mutant of p53 binding to nspDNA (random sequence). Briefly: Fluorescence anisotropy titration of TetCT mutant against nspDNA in the presence of DP6. The assay is classed as biochemical, human. The conditions noted are these: at more than 150 μM DP6; 100 mM KCl. As to the method: as §3, §1, §2
The target in assay [6] is T2, CT peptide (residues 367–393 of human p53) (Homo sapiens, UniProt P04637).
T2 construct: CT peptide (residues 367–393 of human p53) labeled with FAM at the N-terminus; purchased Toray Research Center Inc., Tokyo, Japan; host or cells: chemical synthesis
Nature of the assay: Fluorescence anisotropy titration of peptides against FAM-labeled CT peptide of p53. It is filed as binding. As to conditions: absence of salt; versus Wmot2, Cul7, WS100B peptides.
Description: To test how well our method worked, we titrated the designed peptides against the CT peptide (residues 367–393) labeled with a fluorescent dye, FAM, using a fluorometer with fluorescence anisotropy[11]
The fluorescence anisotropy of fluorescent CT peptide or DNA was measured at 25 °C using a fluorescence spectrometer (FP-6500, JASCO Co., Tokyo, Japan) with an automatic titrator and home-build autorotating polarizer[11]. […] The titration curves were fitted by the following equations:1 robs=rA(cA−cAB)/cA+rABcAB/cA, 2 cAB=(cA+cB+KD)−(cA+cB+KD)^2−4cAcB/2, where robs, rA, rAB, KD, cA, and cB are the observed anisotropy, anisotropy of free molecule A, anisotropy of the complex between molecules A and B, dissociation constant, total concentration of molecule A and total concentration of molecule B, respectively. For p53 mutants, the concentration was calculated for the tetramer.

Peptide text beside a SMILES is read from it.

For the molecule `NC(=O)C[C@H](NC(=O)[C@H](CC(N)=O)NC(=O)[C@H](CC(=O)O)NC(=O)[C@H](CCC(=O)O)NC(=O)[C@H](CCC(=O)O)NC(=O)[C@H](CCC(=O)O)NC(=O)[C@@H](N)CCC(=O)O)C(=O)N[C@@H](CC(=O)O)C(=O)N[C@@H](CC(=O)O)C(=O)N[C@@H](CC(=O)O)C(=O)N[C@@H](CCC(=O)O)C(=O)N[C@@H](CCC(=O)O)C(=O)N[C@@H](CCC(=O)O)C(=O)O` [DP5] (H-EEEEDNNDDDEEE-OH), in assay [1] (DP5, nspDNA and spDNA (Fig. S7, Table S2)), the “effect on the affinity of FL-p53 for DNA” value is reported as “did not affect the affinity of FL-p53”.

On to `NC(=O)C[C@H](NC(=O)[C@H](CC(N)=O)NC(=O)[C@H](CC(=O)O)NC(=O)[C@H](CCC(=O)O)NC(=O)[C@H](CCC(=O)O)NC(=O)[C@H](CCC(=O)O)NC(=O)[C@H](CCC(=O)O)NC(=O)[C@@H](N)CCC(=O)O)C(=O)N[C@@H](CC(=O)O)C(=O)N[C@@H](CC(=O)O)C(=O)N[C@@H](CC(=O)O)C(=O)N[C@@H](CCC(=O)O)C(=O)N[C@@H](CCC(=O)O)C(=O)N[C@@H](CCC(=O)O)C(=O)N[C@@H](Cc1c[nH]c2ccccc12)C(=O)N[C@@H](Cc1ccccc1)C(=O)O` [DP6], for which the “increase of the KD of FL-p53 for nspDNA” value in assay [1] (at 600 μM than at 0 μM DP6) is given as 7 fold. Besides, in assay [2], the “increase of the KD of FL-p53 for spDNA” value is given as 3 fold. Further, in assay [3] ([DP6] 300), the “Fraction of slow sliding mode of FL-p53” value is listed as 54 ± 1% and the “Fraction of fast sliding mode of FL-p53” value was 46 ± 2%. In assay [3] ([DP6] 600), the “Fraction of slow sliding mode of FL-p53” value is listed as 31 ± 2% and the “Fraction of fast sliding mode of FL-p53” value is 69 ± 1%. Further, the “effect on binding of the CoreTet mutant to spDNA” value in assay [4] is “did not weaken the binding”. Besides, the “anisotropy change for nspDNA on titration of TetCT mutant” value in assay [5] is listed as “no significant change in anisotropy”. The “KD of DP6 with respect to the CT domain, times stronger than the KD of the natural peptides” value in assay [6] was “at least 12 times”.
